Assay results reported in article PMC5362113 (Journal of medicinal chemistry, 2016).
“And” between values parts separate entries of the source, which are not always exact repeats. Equal values may be shown once.

What was measured:
[1] = In vitro liver microsome assay, mouse; format: in vitro ADME; settings: pooled liver microsomes
[2] = In vitro liver microsome assay, human; format: in vitro ADME; settings: pooled liver microsomes
[3] = test system: T. b. brucei (strain BF427); assay: T. brucei growth inhibition assay; format: cell-based; settings: T. b. brucei BF427, 48 h, Alamar Blue
[4] = test system: HepG2 cells (human hepatocellular carcinoma); assay: Cytotoxicity in mammalian cells, HepG2; format: cell-based; settings: human hepatocytes, 48 h, growth inhibition by 50%
[5] = Mouse oral pharmacokinetics; format: in vivo; settings: mice, 50 mg/kg oral, Tween 80/EtOH/DMSO vehicle
[6] = Brain:plasma compound concentration measurements in mice, 1 h post ip dose; format: in vivo; settings: single ip dose 5 mg/kg, 1 h postdose
[7] = Brain time-course experiment of compound 57 after oral dosing; format: in vivo; settings: mice, single oral dose 50 mg/kg
[8] = Efficacy PK in acute model; format: in vivo, mice; settings: 50 mg/kg po b.i.d., prior to dose 7 (predose)
[9] = Efficacy PK in chronic model; format: in vivo, mice; settings: 50 mg/kg po b.i.d., prior to dose 15 (predose)
[10] = test system: CRL-8155 (human lymphoblasts); assay: Cytotoxicity in mammalian cells, CRL-8155; settings: 48 h, growth inhibition by 50%

SMILES: O=C(Nc1ccc2oc(-c3ccccc3)nc2c1)c1ccccc1 [Compound 30]
- half-life at 1.5 μM [1]: 10 to 20 min
- half-life at 1.5 μM [2]: ≥ 60 min

SMILES: O=C(Nc1ccc2oc(-c3ccccc3)nc2c1)N1CCCCC1 [Compound 32]
- half-life at 1.5 μM [1]: 10 to 20 min
- half-life at 1.5 μM [2]: ≥ 60 min

SMILES: O=C(Nc1ccc2sc(-c3ccccc3)nc2c1)N1CCCC1 [Compound 38]
- half-life at 1.5 μM [1]: > 20 min

SMILES: O=C(Nc1ccc2sc(-c3ccccc3)nc2c1)N1CCCCC1 [Compound 40]
- half-life at 1.5 μM [1]: > 20 min

SMILES: O=C(Nc1ccc2sc(-c3cccc(F)c3)nc2c1)N1CCN(C(=O)Nc2ccc3sc(-c4cccc(F)c4)nc3c2)CC1 [Compound 49]
- T. brucei EC50 [3]: No activity was detected

SMILES: O=C(Nc1ccc2sc(-c3ccc(F)c(F)c3)nc2c1)N1CC[C@H](F)C1 [Compound 57, (S)-2-(3,4-Difluorophenyl)-5-(3-fluoro-N-pyrrolidylamido)-benzothiazole]
- HepG2 EC50 [4]: no detectable toxicity
- percent of Cmax remaining at the 24 h time point [5]: Less than 1%
- [compd]brain [6]: 9.07 µM and 9.07 ± 3.973 µM
- Cmax, brain [7]: 54.84 ± 4.64 µM
- [compd]brain ([7]; 24 h): submicromolar
- [compd]plasma ([7]; 24 h, LLQ is 0.010 μM, 50 mg/kg): undetectable
- average plasma level [8]: 9.1 ± 7.6 µM
- average plasma level [9]: 15.8 ± 8.7 µM
- CRL-8155 EC50 [10]: no detectable toxicity

SMILES: O=C(Nc1ccc2sc(-c3ccc(F)c(F)c3)nc2c1)N1C[C@@H](F)[C@H](F)C1 [Compound 59]
- percent of Cmax remaining at the 24 h time point [5]: 34%
- percent of Cmax remaining at the 32 h time point [5]: > 17%
